# Reference: US10953100B2, “Compounds and therapeutic uses thereof” (priority 2015, dated 2021)
# Target: Anti-alpha galactosyl IgG antibody
# Assay: ELISA assay: streptavidin-captured biotin compound, binding of anti-alpha galactosyl IgG antibody
# Parameters: species or system human
# Settings: geometric mean with standard error in brackets; streptavidin plate, anti-alpha galactosyl IgG 0.5 μg/mL; read-out: Concentration at half maximal binding
# Protocol: Compounds containing F (representing a carbohydrate molecule capable of binding to a human anti-alpha-galactosyl antibody) and L (as biotin) were assayed for binding at both ends of the compound using an enzyme-linked immunosorbent assay (ELISA). Streptavidin-coated plates captured biotin to the surface of the plate and the binding of anti-alpha galactosyl antibodies to the alpha-galactosyl moiety was reported by a secondary antibody labelled with HRP (Horse Radish Peroxidase).
# Compounds were titrated 1.5 fold from a top dose of 50 nM in phosphate buffered saline (PBS) (Sigma D8537)+0.025% DMSO (Dimethyl Sulphoxide, Sigma D8418). Streptavidin immobilizer 96-well plates (nunc 436014) were coated with 100 μL of compound at room temperature for 2 hours shaking at 500 rpm. Plates were washed with 2×200 μL PBS-T (PBS with 0.05% Tween 20 (Sigma P9416)) and 1×200 μL PBS-T with a 5 minute incubation shaking at room temperature, prior to being blocked for 1 hour at room temperature with 1% Bovine Serum Albumin (BSA, Sigma A2153) in PBS-T. After removing the blocking buffer, 50 μL of Anti-alpha galactosyl IgG antibody (Anti-alpha-galactosyl antibody was purified from human IVIG (Gammagard) by affinity purification using an alpha-galactosyl-HSA (Human Serum Albumin) sepharose column by Rockland Immunochemicals Inc.) at 0.5 μg/mL in PBS-T+1% BSA and incubated shaking at room temperature for 1 hour.
# Plates were washed 2×200 μL PBS-T and 3×200 μL PBS-T with a 5 minute incubation, shaking at room temperature before the addition of 50 μL 1:5000 Goat Anti-Human IgG-HRP (horseradish peroxidase) conjugate (Abcam ab97175). The plates were incubated shaking at room temperature for 1 hour before a final wash of 2×200 μL PBS-T and 3×200 μl PBS-T with a 5 minute incubation shaking at room temperature. 100 μL TMB buffer (3,3′,5,5′-tetramethylbenzidine, a chromogenic substrate for horseradish peroxidase) (Pierce 34021) was added to the plate and allowed to develop for 5-10 minutes before the samples were quenched with 50 μL 2M sulfuric acid (Sigma 258105). The absorbance was read at 450 nm on an Envision plate reader (Perkin Elmer). Results from wells (duplicate) were averaged and the 50% binding affinity calculated.
# The concentration at which half-maximal binding is achieved is reported as a geometric mean with standard error in brackets. The number of independent experiments is also reported. In order to achieve a signal both ends of the molecule are required to bind (biotin to streptavidin and alpha-galactosyl to anti-alpha galactosyl antibodies) simultaneously.
row,EC50 [nM],SMILES
1,5.8,"CC(=O)NC1C(OCCCNC(=O)COc2cc(OCC(=O)NCCCOC3OC(CO)C(OC4OC(CO)C(O)C(OC5OC(CO)C(O)C(O)C5O)C4O)C(O)C3NC(C)=O)cc(C(=O)NCCNC(=O)CCOCCOCCOCCOCCOCCOCCOCCOCCOCCOCCOCCOCCNC(=O)CCCCC3SCC4NC(=O)NC43)c2)OC(CO)C(OC2OC(CO)C(O)C(OC3OC(CO)C(O)C(O)C3O)C2O)C1O [Example 6, 1-{5-[(3aS,4S,6aR)-2-Oxo-hexahydro-1H-thieno[3,4-d]imidazolidin-4-yl]pentanamido}-N-(2-{[3,5-bis({[(3-{[(2R,5S)-5-{[(2S,5S)-3,5-dihydroxy-6-(hydroxymethyl)-4-{[(2R,5R)-3,4,5-trihydroxy-6-(hydroxymethyl)oxan-2-yl]oxy}oxan-2-yl]oxy}-3-acetamido-4-hydroxy-6-(hydroxymethyl)oxan-2-yl]oxy}propyl)carbamoyl]methoxy})phenyl]formamido}ethyl)-3,6,9,12,15,18,21,24,27,30,33,36-dodecaoxanonatriacontan-39-amide]"
2,16,CC(=O)N[C@H]1[C@H](OCCCNC(=O)COc2ccc(-c3cc(OCC(=O)NCCCO[C@@H]4O[C@H](CO)[C@@H](O[C@@H]5O[C@H](CO)[C@H](O)[C@H](O[C@H]6O[C@H](CO)[C@H](O)[C@H](O)[C@H]6O)[C@H]5O)[C@H](O)[C@H]4NC(C)=O)cc(C(=O)NCCNC(=O)CCCC[C@@H]4SC[C@@H]5NC(=O)N[C@@H]54)c3)cc2)O[C@H](CO)[C@@H](O[C@@H]2O[C@H](CO)[C@H](O)[C@H](O[C@H]3O[C@H](CO)[C@H](O)[C@H](O)[C@H]3O)[C@H]2O)[C@@H]1O [Example 7]
3,28.8,"CC(=O)N[C@H]1[C@H](OCCCNC(=O)COc2ccc(C(=O)NCCNC(=O)CCCC[C@@H]3SC[C@@H]4NC(=O)N[C@@H]43)cc2)O[C@H](CO)[C@@H](O[C@@H]2O[C@H](CO)[C@H](O)[C@H](O[C@H]3O[C@H](CO)[C@H](O)[C@H](O)[C@H]3O)[C@H]2O)[C@@H]1O [Example 8, 4-(2-((3-(((2R,3R,4R,5S,6R)-3-Acetamido-5-(((2S,3R,4S,5S,6R)-3,5-dihydroxy-6-(hydroxymethyl)-4-(((2R,3R,4S,5R,6R)-3,4,5-trihydroxy-6-(hydroxymethyl)tetrahydro-2H-pyran-2-yl)oxy)tetrahydro-2H-pyran-2-yl)oxy)-4-hydroxy-6-(hydroxymethyl)tetrahydro-2H-pyran-2-yl)oxy)propyl)amino)-2-oxoethoxy)-N-(2-(5-((3aS,4S,6aR)-2-oxohexahydro-1H-thieno[3,4-d]imidazol-4-yl)pentanamido)ethyl)benzamide]"
4,10.1,CC(=O)N[C@H]1[C@H](OCCCNC(=O)COc2cc(OCC(=O)NCCCO[C@@H]3O[C@H](CO)[C@@H](O[C@@H]4O[C@H](CO)[C@H](O)[C@H](O[C@H]5O[C@H](CO)[C@H](O)[C@H](O)[C@H]5O)[C@H]4O)[C@H](O)[C@H]3NC(C)=O)cc(-c3cc(C(=O)NCCNC(=O)CCCC[C@@H]4SC[C@@H]5NC(=O)N[C@@H]54)c(OCC(=O)NCCCO[C@@H]4O[C@H](CO)[C@@H](O[C@@H]5O[C@H](CO)[C@H](O)[C@H](O[C@H]6O[C@H](CO)[C@H](O)[C@H](O)[C@H]6O)[C@H]5O)[C@H](O)[C@H]4NC(C)=O)cc3OCC(=O)NCCCO[C@@H]3O[C@H](CO)[C@@H](O[C@@H]4O[C@H](CO)[C@H](O)[C@H](O[C@H]5O[C@H](CO)[C@H](O)[C@H](O)[C@H]5O)[C@H]4O)[C@H](O)[C@H]3NC(C)=O)c2)O[C@H](CO)[C@@H](O[C@@H]2O[C@H](CO)[C@H](O)[C@H](O[C@H]3O[C@H](CO)[C@H](O)[C@H](O)[C@H]3O)[C@H]2O)[C@@H]1O [Example 9]
5,25.7,"CC(=O)N[C@H]1[C@H](OCCCNC(=O)COc2cc(C(=O)NCCNC(=O)CCCC[C@@H]3SC[C@@H]4NC(=O)N[C@@H]43)nc3ccccc23)O[C@H](CO)[C@@H](O[C@@H]2O[C@H](CO)[C@H](O)[C@H](O[C@H]3O[C@H](CO)[C@H](O)[C@H](O)[C@H]3O)[C@H]2O)[C@@H]1O [Example 10, 4-(2-((3-(((2R,3R,4R,5S,6R)-3-Acetamido-5-(((2S,3R,4S,5S,6R)-3,5-dihydroxy-6-(hydroxymethyl)-4-(((2R,3R,4S,5R,6R)-3,4,5-trihydroxy-6-(hydroxymethyl)tetrahydro-2H-pyran-2-yl)oxy)tetrahydro-2H-pyran-2-yl)oxy)-4-hydroxy-6-(hydroxymethyl)tetrahydro-2H-pyran-2-yl)oxy)propyl)amino)-2-oxoethoxy)-N-(2-(5-((3aS,4S,6aR)-2-oxohexahydro-1H-thieno[3,4-d]imidazol-4-yl)pentanamido)ethyl)quinoline-2-carboxamide]"
6,19,CC(=O)N[C@H]1[C@H](OCCCNC(=O)COc2ccc(-c3cccc(C(=O)NCCNC(=O)CCCC[C@@H]4SC[C@@H]5NC(=O)N[C@@H]54)c3)cc2)O[C@H](CO)[C@@H](O[C@@H]2O[C@H](CO)[C@H](O)[C@H](O[C@H]3O[C@H](CO)[C@H](O)[C@H](O)[C@H]3O)[C@H]2O)[C@@H]1O [Example 11]

# Further lines, the molecule ahead of its results:
row,SMILES,EC50 [nM]
1,CC(=O)N[C@H]1[C@H](OCCCNC(=O)COc2cc(OCC(=O)NCCCO[C@@H]3O[C@H](CO)[C@@H](O[C@@H]4O[C@H](CO)[C@H](O)[C@H](O[C@H]5O[C@H](CO)[C@H](O)[C@H](O)[C@H]5O)[C@H]4O)[C@H](O)[C@H]3NC(C)=O)cc(-c3cc(OCC(=O)NCCCO[C@@H]4O[C@H](CO)[C@@H](O[C@@H]5O[C@H](CO)[C@H](O)[C@H](O[C@H]6O[C@H](CO)[C@H](O)[C@H](O)[C@H]6O)[C@H]5O)[C@H](O)[C@H]4NC(C)=O)cc(C(=O)NCCNC(=O)CCCC[C@@H]4SC[C@@H]5NC(=O)N[C@@H]54)c3)c2)O[C@H](CO)[C@@H](O[C@@H]2O[C@H](CO)[C@H](O)[C@H](O[C@H]3O[C@H](CO)[C@H](O)[C@H](O)[C@H]3O)[C@H]2O)[C@@H]1O [Example 1],8.2
2,"CC(=O)N[C@H]1[C@H](OCCCNC(=O)COc2cccc(C(=O)NCCNC(=O)CCCC[C@@H]3SC[C@@H]4NC(=O)N[C@@H]43)c2)O[C@H](CO)[C@@H](O[C@@H]2O[C@H](CO)[C@H](O)[C@H](O[C@H]3O[C@H](CO)[C@H](O)[C@H](O)[C@H]3O)[C@H]2O)[C@@H]1O [Example 2, 3-(2-((3-(((2R,3R,4R,5S,6R)-3-Acetamido-5-(((2S,3R,4S,5S,6R)-3,5-dihydroxy-6-(hydroxymethyl)-4-(((2R,3R,4S,5R,6R)-3,4,5-trihydroxy-6-(hydroxymethyl)tetrahydro-2H-pyran-2-yl)oxy)tetrahydro-2H-pyran-2-yl)oxy)-4-hydroxy-6-(hydroxymethyl)tetrahydro-2H-pyran-2-yl)oxy)propyl)amino)-2-oxoethoxy)-N-(2-(5-((3aS,4S,6aR)-2-oxohexahydro-1H-thieno[3,4-d]imidazol-4-yl)pentanamido)ethyl)benzamide]",21.2
3,CC(=O)NC1C(OCCCNC(=O)COc2cccc(C(=O)NCCNC(=O)CCOCCOCCOCCOCCOCCOCCOCCOCCOCCOCCOCCOCCNC(=O)CCCCC3SCC4NC(=O)NC43)c2)OC(CO)C(OC2OC(CO)C(O)C(OC3OC(CO)C(O)C(O)C3O)C2O)C1O (centres unmarked) [Example 3],15
4,"CC(=O)N[C@H]1[C@H](OCCCNC(=O)c2cccc(OCC(=O)NCCNC(=O)CCCC[C@@H]3SC[C@@H]4NC(=O)N[C@@H]43)c2)O[C@H](CO)[C@@H](O[C@@H]2O[C@H](CO)[C@H](O)[C@H](O[C@H]3O[C@H](CO)[C@H](O)[C@H](O)[C@H]3O)[C@H]2O)[C@@H]1O [Example 4, N-(3-(((2R,3R,4R,5S,6R)-3-Acetamido-5-(((2S,3R,4S,5S,6R)-3,5-dihydroxy-6-(hydroxymethyl)-4-(((2R,3R,4S,5R,6R)-3,4,5-trihydroxy-6-(hydroxymethyl)tetrahydro-2H-pyran-2-yl)oxy)tetrahydro-2H-pyran-2-yl)oxy)-4-hydroxy-6-(hydroxymethyl)tetrahydro-2H-pyran-2-yl)oxy)propyl)-3-(2-oxo-2-((2-(5-((3aS,4S,6aR)-2-oxohexahydro-1H-thieno[3,4-d]imidazol-4-yl)pentanamido)ethyl)amino)ethoxy)benzamide]",13.1
5,CC(=O)N[C@H]1[C@H](OCCCNC(=O)COc2cc(OCC(=O)NCCCO[C@@H]3O[C@H](CO)[C@@H](O[C@@H]4O[C@H](CO)[C@H](O)[C@H](O[C@H]5O[C@H](CO)[C@H](O)[C@H](O)[C@H]5O)[C@H]4O)[C@H](O)[C@H]3NC(C)=O)cc(C(=O)NCCNC(=O)CCCC[C@@H]3SC[C@@H]4NC(=O)N[C@@H]43)c2)O[C@H](CO)[C@@H](O[C@@H]2O[C@H](CO)[C@H](O)[C@H](O[C@H]3O[C@H](CO)[C@H](O)[C@H](O)[C@H]3O)[C@H]2O)[C@@H]1O [Example 5],9.1
